Measurements published in the supplement of paper PMC5579334.

How the values were obtained:
HS-Sch-2 = assay: relative IC50 (inflection point of fitted dose-response curve, CellTiter-Glo viability, 72 h; top asymptote may be below 50% inhibition); higher = less potent
Summary of the method: (§1)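 Viability of MPNST cell lines and primary human Schwann cells was read as CellTiter-Glo ATP luminescence after 72 h at 37 °C, 5% CO2, in 384-well plates seeded with 750–1000 cells per well. Each compound had been preprinted at five concentrations in 10-fold steps. Signals were scaled between vehicle and positive-control wells, duplicates averaged where present, and fitted with four-parameter logistic curves. Drug sensitivity score and relative IC50 (censored at the top concentration) come from those fits, and percent inhibition is taken at the top concentration.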

HS-PSS [1] = assay: as above
Summary of the method: as §1

YST-1 = assay: as above
Summary of the method: as §1

HS-PSS [2] = assay: relative IC50 (inflection point of fitted dose-response curve, CellTox-Green cytotoxicity, 72 h; top asymptote may be below 50%); higher = less potent
Summary of the method: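 MPNST cell lines and primary human Schwann cells were grown for 72 h at 37 °C in 384-well plates containing five 10-fold compound dilutions. CellTox-Green, added before seeding at a final 1:1000 dilution, gave fluorescence from DNA released by disrupted cells, and signals were scaled to vehicle and positive-control wells. Curves were fitted with a four-parameter logistic model. Drug sensitivity score and relative IC50 come from these fits, with IC50 censored at the top concentration.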

SMILES	relative IC50 (HS-Sch-2) [nM]	relative IC50 (HS-PSS [1]) [nM]	relative IC50 (YST-1) [nM]	relative IC50 (HS-PSS [2]) [nM]
C/C=C1\NC(=O)[C@H]2CSSCC/C=C/[C@H](CC(=O)N[C@H](C(C)C)C(=O)N2)OC(=O)[C@H](C(C)C)NC1=O [Romidepsin]	2	300	0.75	337
C[C@@H](Nc1cc(F)cc(F)c1)c1cc(C(=O)N(C)C)cc2c(=O)cc(N3CCOCC3)oc12 [AZD-8186]	> 1000	> 1000	357	> 1000
COc1ccc(C[C@H](NC(=O)[C@H](C)NC(=O)CN2CCOCC2)C(=O)N[C@@H](Cc2ccccc2)C(=O)[C@@]2(C)CO2)cc1 [ONX-0914]	158	335	309	307
CCNC(=O)Nc1ccc(-c2nc3c(c(N4CCOC[C@@H]4C)n2)CCN(C2COC2)C3)cc1 [RG-7603]	356	777	192	> 2500
O=C(O)CSc1cc(NS(=O)(=O)c2ccc(Br)cc2)c2ccccc2c1O [UMI-77]	5660	26900	3040	30500
Cn1cc(-c2cnn3c(N)c(Br)c([C@@H]4CCCNC4)nc23)cn1 [MK-8776]	360	> 2500	362	> 2500
CCNC(=O)C[C@@H]1N=C(c2ccc(Cl)cc2)c2cc(OC)ccc2-n2c(C)nnc21	624	709	501	> 10000
CCN(CC)CCCC(C)Nc1c2ccc(Cl)cc2nc2ccc(OC)cc12 (stereo not drawn) [Mepacrine]	1440	1440	1790	1580
CN1CCN(c2cc(C(=O)Nc3ccc4c(c3)-c3c(c(C(N)=O)nn3-c3ccc(F)cc3)CC4)c(Cl)cn2)CC1 [PHA 408]	3280	2400	3080	3260
FC(F)(F)c1ccc(/C=C/c2nc(COc3ccc(CCCCn4ccnn4)cc3)co2)cc1 [Mubritinib]	19.7	10.9	6.05	> 1000
CCN(CC)Cc1ccc2cc(COC(=O)Nc3ccc(C(=O)NO)cc3)ccc2c1 [Givinostat]	166	351	63.7	253
CN(C)Cc1ccc(S(=O)(=O)n2ccc(/C=C/C(=O)NO)c2)cc1 [Resminostat]	2170	2180	578	3060
CN(C)Cc1c(C(=O)NCCOc2ccc(C(=O)NO)cc2)oc2ccccc12 [Abexinostat]	197	333	72.3	1430
O=C(Nc1cccc(NC(=O)c2cccc(O)c2O)c1)c1cccc(O)c1O [MST-312]	984	3370	3120	
O=C(c1ccc(F)c(F)c1Nc1ccc(I)cc1F)N1CC(O)([C@@H]2CCCCN2)C1 [Cobimetinib]	300	159	> 1000	
O=C(NC1CCNCC1)c1n[nH]cc1NC(=O)c1c(Cl)cccc1Cl [AT7519]	337	277	69.3	
CCn1nnc2c(N3CCOCC3)nc(-c3ccc(NC(=O)Nc4ccc(C(=O)N5CCN(C)CC5)cc4)cc3)nc21 [PKI-402]	95.8	46.7	61.1	
CN[C@@H](C)C(=O)N[C@H](C(=O)N1CCC[C@H]1c1nc(C(=O)c2ccc(F)cc2)cs1)C1CCCCC1 [LCL161]	7520	3860	4260	
NC(=O)c1cccc2cn(-c3ccc(C4CCCNC4)cc3)nc12 (stereo not drawn) [Niraparib]	661	1760	461	
CC(=O)c1cnc2ccc(-c3cc(Cl)c(O)c(Cl)c3)nc2c1N[C@H]1CC[C@H](CN(C)C)CC1 [OTSSP167]	26.1	339	10.8	
Cc1c(NC(=O)OC[C@@H]2COCCN2)cn2ncnc(Nc3ccc4c(cnn4Cc4cccc(F)c4)c3)c12	1990	2150	1000	
COc1cccc(OCCCN)c1-c1cc(Nc2cnc(C#N)cn2)n[nH]1 [Prexasertib]	26	1770	54.7	
CNC(=O)c1nn(C)c2c1C(C)(C)Cc1cnc(Nc3ccc(N4CCN(C)CC4)cc3)nc1-2 [Milciclib]	1240	779	351	
Cc1ncc(-c2ccnc(Nc3ccc(S(C)(=O)=O)cc3)n2)n1C(C)C [AZD-5438]	1900	367	1450	
CON(C)C(=O)N1N=C(c2cc(F)ccc2F)S[C@@]1(CCCN)c1ccccc1 [Filanesib]	2.19	4.62	2.28	
CO[C@H]1C(=O)[C@]2(C)[C@@H](OC)C[C@H]3OC[C@@]3(OC(C)=O)[C@H]2[C@H](OC(=O)c2ccccc2)[C@]2(O)C[C@H](OC(=O)[C@H](O)[C@@H](NC(=O)OC(C)(C)C)c3ccccc3)C(C)=C1C2(C)C [Cabazitaxel]	0.94	418	0.74	
CCOc1cc2ncc(C#N)c(Nc3ccc(F)c(Cl)c3)c2cc1NC(=O)/C=C/CN(C)C [Pelitinib]	195	79.5	323	
O=C(/C=C\n1cnc(-c2cc(C(F)(F)F)cc(C(F)(F)F)c2)n1)NNc1ccccn1 [Verdinexor]	137	137	144	
CNC(=O)c1ccccc1Nc1cc(Nc2ccc(N3CCOCC3)cc2OC)ncc1C(F)(F)F [VS-4718]	2610	3690	724	
O=C1c2ccccc2-c2n[nH]c3cccc1c23	13900	13300	20100	
